Results: US20080118589A1, “Pharmaceutical formulations of rhodiola crenulata and methods of use thereof” (priority 2005, published 2008)

Tests used:
[1] = system: MDA-MB-231 Cells; assay: MTS assay, growth arrest by retinoids +/-Rhodiola; format: cell-based, human; settings: for chemosensitivity (MTS assay): retinoid with Rhodiola, data not shown
Protocol: Rhodiola crenulata extracts were administered to MDA-MB-231 cells in the presence or absence of either 1 μM or 10 μM all trans retinoic acid (ATRA), and cell viability/cytotoxicity was monitored using the MTS assay, as described above, and monitored for absorbance at 490 nm as indicative of chemosensitivity/resistance to the ATRA administered.

[2] = system: MDA-MB-231 Cells; assay: Death time course with Tamoxifen, Rhodiola, or both; format: cell-based, human
Text: FIG. 8 is a graph showing a Death Time Course of MDA-MB-231 Cells treated with Tamoxifen, Rhodiola, or Tamoxifen plus Rhodiola.
FIG. 8 is similar to FIG. 7, but this experiment involved a time course of MDA-MB-231 Cells treated with Tamoxifen or Rhodiola alone, or Tamoxifen and Rhodiola together.

[3] = target: T1, telomerase activity in MDA-MB-231 breast cancer cells (Homo sapiens, UniProt O14746); assay: Telomerase activity (qPCR); format: cell-based; settings: Rhodiola crenulata 100 μg/mL, tamoxifen 10 μM
T1 construct: telomerase activity in human MDA-MB-231 breast cancer cells; endogenous in cells; host or cells: MDA-MB-231
T1 sequence (O14746 whole entry): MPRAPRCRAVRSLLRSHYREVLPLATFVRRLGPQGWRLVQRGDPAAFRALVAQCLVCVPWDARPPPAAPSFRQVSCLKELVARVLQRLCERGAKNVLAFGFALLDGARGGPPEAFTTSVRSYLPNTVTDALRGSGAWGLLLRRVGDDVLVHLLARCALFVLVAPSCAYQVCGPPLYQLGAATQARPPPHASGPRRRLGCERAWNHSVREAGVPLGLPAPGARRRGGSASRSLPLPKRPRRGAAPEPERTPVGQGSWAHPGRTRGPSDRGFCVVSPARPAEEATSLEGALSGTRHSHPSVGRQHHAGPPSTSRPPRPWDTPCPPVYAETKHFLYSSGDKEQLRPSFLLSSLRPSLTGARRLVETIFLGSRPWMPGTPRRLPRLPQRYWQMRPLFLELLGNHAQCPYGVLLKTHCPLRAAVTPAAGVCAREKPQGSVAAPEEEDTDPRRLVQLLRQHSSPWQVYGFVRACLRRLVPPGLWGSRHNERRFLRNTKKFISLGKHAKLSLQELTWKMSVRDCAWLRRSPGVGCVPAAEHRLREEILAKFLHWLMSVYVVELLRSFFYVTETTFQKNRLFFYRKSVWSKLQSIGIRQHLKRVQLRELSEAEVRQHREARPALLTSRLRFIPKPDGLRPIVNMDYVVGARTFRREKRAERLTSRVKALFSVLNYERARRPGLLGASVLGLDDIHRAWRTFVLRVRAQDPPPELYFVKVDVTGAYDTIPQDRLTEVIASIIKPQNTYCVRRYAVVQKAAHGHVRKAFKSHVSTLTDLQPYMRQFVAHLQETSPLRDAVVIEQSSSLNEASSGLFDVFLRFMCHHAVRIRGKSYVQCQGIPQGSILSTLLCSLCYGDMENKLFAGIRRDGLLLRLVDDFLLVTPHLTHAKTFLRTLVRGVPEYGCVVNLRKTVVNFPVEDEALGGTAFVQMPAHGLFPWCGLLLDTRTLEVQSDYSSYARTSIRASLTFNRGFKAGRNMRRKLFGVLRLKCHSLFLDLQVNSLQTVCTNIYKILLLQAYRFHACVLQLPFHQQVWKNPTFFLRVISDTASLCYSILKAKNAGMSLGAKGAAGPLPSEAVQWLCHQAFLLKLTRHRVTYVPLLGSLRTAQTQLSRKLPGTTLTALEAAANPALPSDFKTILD
Protocol: FIGS. 16 and 17 show the effect of Rhodiola crenulata (100 μg/mL) and tamoxifen (10 μM) on telomerase activity in human MDA-MB-231 breast cancer cells at 24 hr and 72 hr, respectively.
The breast cancer cell lines MDA-MB-231, V14, 76N tert (an immortalized epithelial breast cancer cell line), and 76N p53 239 (immortalized by presence of a dominant negative p53 gene) were treated as indicated above for 24 hours at 100 μg/mL Rhodiola crenulata.

With `CC1=C(/C=C/C(C)=C\C=C\C(C)=C\C(=O)O)C(C)(C)CCC1` [9-cis retinoic acid] the “chemosensitivity (MTS assay)” value [1] was “Comparable effects”.

`CC1=C(/C=C/C(C)=C/C=C/C(C)=C/C(=O)O)C(C)(C)CCC1` [ATRA, all trans retinoic acid] was tested, and the “chemosensitivity (MTS assay, absorbance at 490 nm)” value ([1]; 1 μM or 10 μM ATRA, absence of Rhodiola crenulata) was “little difference in chemosensitivity”.

`CC1=C(/C=C/C(C)=C/C=C/C(C)=C/C(=O)Nc2ccc(O)cc2)C(C)(C)CCC1` [HPR, N-(4-hydroxyphenyl) retinamide] was tested, and the “chemosensitivity (MTS assay)” value [1] was “Comparable effects”.

With `CC/C(=C(\c1ccccc1)c1ccc(OCCN(C)C)cc1)c1ccccc1` [Tamoxifen, tamoxifen] the “percentage of cell death” value ([2]; 24 hours) was “increased the percentage of cell death”, the “percentage of cell death” value ([2]; 48 hours) was “increased the percentage of cell death” and the telomerase activity ([3]; 24 hr) was “inhibited telomerase activity”. For the same compound, the telomerase activity ([3]; 72 hr) was “telomerase activity is starting to return”.
